16 molecules from patent US12473304B2, “Heterocyclic PAD4 inhibitors” (BRISTOL-MYERS SQUIBB COMPANY, priority 2020, dated 2025) can be followed below.

In this test the target is human PAD4 (hPAD4) (Homo sapiens (Human), UniProt Q9UM07). Nature of the test: RFMS Human PAD4 Functional Assay 1. It is filed as biochemical. The settings on record: RFMS assay 1; 5 nM hPAD4, 250 μM BAEE substrate, 50 μM calcium, 37° C. The gist of the method:
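Citrullination product read by RapidFire triple-quad MRM against a modified-citrulline internal standard, after TCA stop and 30 min phenyl glyoxal step at 37 °C. Reaction: 250 μM BAEE, 5 nM human PAD4, 90 min at 37 °C, pH 7.5 HEPES buffer with 50 μM calcium and 5 μM TPEN, following 30 min compound–enzyme preincubation (max 50 μM).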

Sequence of human PAD4 (hPAD4) (Q9UM07 whole entry): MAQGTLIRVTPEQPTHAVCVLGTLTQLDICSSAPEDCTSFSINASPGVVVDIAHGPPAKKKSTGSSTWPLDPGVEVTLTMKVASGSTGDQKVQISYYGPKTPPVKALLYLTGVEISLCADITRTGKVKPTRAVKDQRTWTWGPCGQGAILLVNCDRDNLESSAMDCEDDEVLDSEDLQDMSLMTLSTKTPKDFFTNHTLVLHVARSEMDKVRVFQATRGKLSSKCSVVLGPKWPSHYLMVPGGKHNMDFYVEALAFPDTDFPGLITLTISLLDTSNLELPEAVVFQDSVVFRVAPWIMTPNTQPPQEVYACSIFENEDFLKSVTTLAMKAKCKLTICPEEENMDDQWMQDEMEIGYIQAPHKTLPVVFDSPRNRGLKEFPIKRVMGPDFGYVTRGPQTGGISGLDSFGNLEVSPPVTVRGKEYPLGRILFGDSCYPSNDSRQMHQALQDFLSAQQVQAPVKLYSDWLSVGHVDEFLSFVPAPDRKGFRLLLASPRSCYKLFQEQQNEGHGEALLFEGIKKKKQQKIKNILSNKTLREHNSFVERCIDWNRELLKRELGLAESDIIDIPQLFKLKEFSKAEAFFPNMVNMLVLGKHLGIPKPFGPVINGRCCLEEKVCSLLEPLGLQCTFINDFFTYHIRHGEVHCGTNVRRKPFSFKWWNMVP

Regarding `Cc1c(-c2cc3cccc(C4CN(C(=O)[C@H]5CCC[C@@H](O)C5)C4)c3n2CC2CC2)nn2cc(C(=O)N3C[C@H](N)C[C@@H](F)C3)ccc12` [Example 533, ((3R,5R)-3-Amino-5-fluoropiperidin-1-yl)(2-(1-(cyclopropylmethyl)-7-(1-((1S,3R)-3-hydroxycyclohexane-1-carbonyl)azetidin-3-yl)-1H-indol-2-yl)-3-methylpyrazolo[1,5-a]pyridin-6-yl)methanone], the IC50 was found to be 520 nM.
Regarding `Cc1c(-c2cc3ccc(-c4cccc5[nH]ncc45)nc3n2CC2CC2)nn2cc(C(=O)N3CC4CCC3[C@@H]4N)ccc12` (stereo partly drawn) [Example 299, (7R)-2-{2-[1-(Cyclopropylmethyl)-6-(1H-indazol-4-yl)-1H-pyrrolo[2,3-b]pyridin-2-yl]-3-methylpyrazolo[1,5-a]pyridine-6-carbonyl}-2-azabicyclo[2.2.1]heptan-7-amine], the IC50 turned out to be 20 nM.
With `Cc1c(-c2cc3ccc(-c4ccc5c(c4)CNC5=O)nc3n2CC2CC2)nn2cc(C(=O)N3CC4CCC3[C@@H]4N)cc(F)c12` (stereo partly drawn) [Example 42, 5-(2-(6-((7R)-7-Amino-2-azabicyclo[2.2.1]heptane-2-carbonyl)-4-fluoro-3-methylpyrazolo[1,5-a]pyridin-2-yl)-1-(cyclopropylmethyl)-1H-pyrrolo[2,3-b]pyridin-6-yl)isoindolin-1-one], the half-maximal inhibitory concentration (IC50) worked out at 9 nM.
The same measure for `Cc1c(-c2cc3cccc(C4CN(C(=O)[C@H]5CC[C@@H](O)CC5)C4)c3n2CC2CC2)nn2cc(C(=O)N3CCC[C@@H](N)C3)ccc12` [Example 539, ((R)-3-Aminopiperidin-1-yl)(2-(1-(cyclopropylmethyl)-7-(1-((1s,4s)-4-hydroxycyclohexane-1-carbonyl)azetidin-3-yl)-1H-indol-2-yl)-3-methylpyrazolo[1,5-a]pyridin-6-yl)methanone]: 130 nM; for `COc1cc(C(=O)N2CC3CCC2[C@@H]3N)cc2oc(-c3cc4ccc(-c5ccc(C(N)=O)c(Cl)c5)cc4n3CC3CC3)c(C)c12` (stereo partly drawn) [Example 153, 4-(2-(6-((7R)-7-Amino-2-azabicyclo[2.2.1]heptane-2-carbonyl)-4-methoxy-3-methylbenzofuran-2-yl)-1-(cyclopropylmethyl)-1H-indol-6-yl)-2-chlorobenzamide]: 628 nM; for `CO[C@H](C)C(=O)N1CCC(c2cc(F)cc3cc(-c4nn5cc(C(=O)N6C[C@H](N)C[C@@H](F)C6)ccc5c4C)n(CC4CC4)c23)CC1` [Example 498, (R)-1-(4-(2-(6-((3R,5R)-3-Amino-5-fluoropiperidine-1-carbonyl)-3-methylpyrazolo[1,5-a]pyridin-2-yl)-1-(cyclopropylmethyl)-5-fluoro-1H-indol-7-yl)piperidin-1-yl)-2-methoxypropan-1-one]: 70 nM.
With `COC1CN(c2ccc3cc(-c4nn5cc(C(=O)N6CC7CCC6[C@@H]7N)cc(F)c5c4C)n(CC4CC4)c3c2)C1` (stereo partly drawn) [Example 296, (7R)-2-{2-[1-(Cyclopropylmethyl)-6-(3-methoxyazetidin-1-yl)-1H-indol-2-yl]-4-fluoro-3-methylpyrazolo[1,5-a]pyridine-6-carbonyl}-2-azabicyclo[2.2.1]heptan-7-amine], the IC50 stood at 850 nM.
For the molecule `Cc1c(-c2cc3ccc(Cl)nc3n2CC2CC2)nn2cc(C(=O)N3CC4CCC3[C@@H]4N)cc(F)c12` (stereo partly drawn) [Example 39, ((7R)-7-Amino-2-azabicyclo[2.2.1]heptan-2-yl)(2-(6-chloro-1-(cyclopropylmethyl)-1H-pyrrolo[2,3-b]pyridin-2-yl)-4-fluoro-3-methylpyrazolo[1,5-a]pyridin-6-yl)methanone], the IC50 was 87 nM.
The same measure for `Cc1c(-c2cc3ccc(N4CCOCC4)cc3n2CC2CC2)nn2cc(C(=O)N3CC4CCC3[C@@H]4N)ccc12` (stereo partly drawn) [Example 350, (7R)-2-{2-[1-(Cyclopropylmethyl)-6-(morpholin-4-yl)-1H-indol-2-yl]-3-methylpyrazolo[1,5-a]pyridine-6-carbonyl}-2-azabicyclo[2.2.1]heptan-7-amine]: 30 nM; for `COc1cc(C(=O)N2C[C@H](N)C[C@@H](F)C2)cc2sc(-c3cc4ccc(-c5ccc6c(c5)C(=O)NC6)nc4n3CC3CC3)c(C)c12` [Example 140, 6-(2-(6-((3R,5R)-3-Amino-5-fluoropiperidine-1-carbonyl)-4-methoxy-3-methylbenzo[b]thiophen-2-yl)-1-(cyclopropylmethyl)-1H-pyrrolo[2,3-b]pyridin-6-yl)isoindolin-1-one]: 346 nM.
On to `Cc1cc(-c2ccc3cc(-c4nn5cc(C(=O)N6CCC[C@@H](N)C6)ccc5c4C)n(CC4CC4)c3n2)ccc1C(N)=O` [Example 316, 4-(2-{6-[(3R)-3-Aminopiperidine-1-carbonyl]-3-methylpyrazolo[1,5-a]pyridin-2-yl}-1-(cyclopropylmethyl)-1H-pyrrolo[2,3-b]pyridin-6-yl)-2-methylbenzamide], for which the IC50 stood at 250 nM.
For `COc1cc(C(=O)N2CCC[C@@H](N)C2)cn2nc(-c3cc4cccc(OC[C@@H]5CCC(=O)N5)c4n3CC3CC3)c(C)c12` [Example 559, (S)-5-(((2-(6-((R)-3-Aminopiperidine-1-carbonyl)-4-methoxy-3-methylpyrazolo[1,5-a]pyridin-2-yl)-1-(cyclopropylmethyl)-1H-indol-7-yl)oxy)methyl)pyrrolidin-2-one] the value was 80 nM; for `COc1cc(C(=O)N2CC3CCC2[C@@H]3N)cn2nc(-c3cc4ccc(-c5ccc6c(c5)C(=O)NC6)nc4n3CC3CC3)c(C)c12` (stereo partly drawn) [Example 3, 6-(2-(6-((7R)-7-Amino-2-azabicyclo[2.2.1]heptane-2-carbonyl)-4-methoxy-3-methylpyrazolo[1,5-a]pyridin-2-yl)-1-(cyclopropylmethyl)-1H-pyrrolo[2,3-b]pyridin-6-yl)isoindolin-1-one], 60 nM.
The same measure for `COc1cc(C(=O)N2CCC[C@@H](N)C2)cn2nc(-c3cc4cccc(C5CCN(C(=O)[C@H]6CC[C@H](O)CC6)CC5)c4n3CC3CC3)c(C)c12` [Example 408, ((R)-3-Aminopiperidin-1-yl)(2-(1-(cyclopropylmethyl)-7-(1-((1r,4r)-4-hydroxycyclohexane-1-carbonyl)piperidin-4-yl)-1H-indol-2-yl)-4-methoxy-3-methylpyrazolo[1,5-a]pyridin-6-yl)methanone]: 40 nM; for `Cc1c(-c2cc3ccc(C(C)(O)C(F)(F)F)nc3n2CC2CC2)nn2cc(C(=O)N3CC4CCC3[C@@H]4N)ccc12` (stereo partly drawn) [Example 103, ((7R)-7-Amino-2-azabicyclo[2.2.1]heptan-2-yl)(2-(1-(cyclopropylmethyl)-6-(1,1,1-trifluoro-2-hydroxypropan-2-yl)-1H-pyrrolo[2,3-b]pyridin-2-yl)-3-methylpyrazolo[1,5-a]pyridin-6-yl)methanone]: 34 nM.
For the molecule `COc1cc(C(=O)N2CC3CCC2[C@@H]3N)cc2oc(-c3cc4ccc(C5CC5)cc4n3CC3CC3)c(C)c12` (stereo partly drawn) [Example 156, ((7R)-7-Amino-2-azabicyclo[2.2.1]heptan-2-yl)(2-(6-cyclopropyl-1-(cyclopropylmethyl)-1H-indol-2-yl)-4-methoxy-3-methylbenzofuran-6-yl)methanone], the IC50 was 173 nM.
